Reference: PubChem BioAssay (NCI)
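All cell lines were grown in 96-well plates and treated with compound for 48 hours. TGI: concentration producing complete growth inhibition.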

Assays:
Assay in all cases: NCI tumour cell line growth inhibition, 48 h
[1] = system: 786-0 renal
[2] = system: SK-MEL-2 melanoma
[3] = system: NCI/ADR-RES ovarian
[4] = system: OVCAR-5 ovarian
[5] = system: HCT-15 colon
[6] = system: NCI-H460 lung
[7] = system: MOLT-4 leukemia
[8] = system: MDA-MB-231 breast
[9] = system: HOP-62 NSCLC
[10] = system: HCC-2998 colon
[11] = system: SW-620 colon
[12] = system: A498 renal
[13] = system: SF-268 CNS
[14] = system: MDA-N
[15] = system: HCT-116 colon
[16] = system: A549 NSCLC
[17] = system: SF-295 CNS
[18] = system: SNB-75 CNS

SMILES	TGI [1] [µM]	TGI [2] [µM]	TGI [3] [µM]	TGI [4] [µM]	TGI [5] [µM]	TGI [6] [µM]	TGI [7] [µM]	TGI [8] [µM]	TGI [9] [µM]	TGI [10] [µM]	TGI [11] [µM]	TGI [12] [µM]	TGI [13] [µM]	TGI [14] [µM]	TGI [15] [µM]	TGI [16] [µM]	TGI [17] [µM]	TGI [18] [µM]
C=C(CCC/C(C)=C/C=C/[C@@H](C)CCCc1ccoc1)C[C@@H]1OC(=O)[C@H](C)[C@@H]1O	31.5	17.7	19.9	> 50	21.3	29.8	> 50	16.9	18.3	24.8	23.7	15.3	18.5	21.5	> 50	17	19.1	19
CS(=O)(=O)c1ccc(N=C/C=C/Nc2ccc(S(C)(=O)=O)cc2)cc1	> 100	> 100	> 100	> 100	> 100	> 100	> 100	> 100	> 100	> 100	> 100	> 100	> 100	> 100	> 100	> 100	> 100	> 100
CC(C)=CC(Cc1ccccc1)S(=O)(=O)c1nc2ccccc2s1 (stereo not given)	33.1	28.5	50	36.7	49.5	50.1	7.95	52	64.3	33.6	37.2	35.5	36.5	29.7	28.3	60.1	66.6	41.1
O=C(O)CCSCc1ccccc1	> 100	> 100	> 100	> 100	> 100	> 100	> 100	> 100	> 100	> 100	> 100	> 100	> 100	> 100	> 100	> 100	> 100	> 100
NC(Cc1ccc(N(CCCl)CCCl)cc1)C(=O)NC(CCC(=O)O)C(=O)O (stereo not given)	> 100	> 100	> 100	> 100	> 100	> 100	> 100	> 100	> 100	> 100	> 100	> 100	> 100	> 100	> 100	> 100	> 100	> 100
